# From paper PMC11695783 (Frontiers in Pharmacology, 2024)
# Where “and” joins values, the source holds several entries; their conditions need not be identical. Equal entries are not always repeated. Structures can show the parent of a compound that is named as a salt.
# How the values were obtained:
# [1] = test system: Mycoplasma pneumoniae strain M129 (ATCC 29342); test: Susceptibility assay (broth microdilution MIC, MBC); assay type: cell-based
# Experimental: (§1) Mycoplasma pneumoniae strain M129 (ATCC 29342) was obtained from American Type Culture Collection (Manassas, VA, United States) and cultured at 37°C in the presence of 5% CO2 in the modified SP-4 liquid medium (pH 7.4) containing 2.1% (w/v) CM1166 mycoplasma broth base medium (Oxoid, Hants, United Kingdom), 20% (v/v) fetal bovine serum (FBS, Bioexplorer, CO, United States), 0.4% yeast extract (Oxoid), 0.55% (w/v) CMRL 1066 w/L-glutamine culture media powder (MyBioSource, San Diego, CA, United States), 1% D-glucose (Macklin) and 0.004% phenol red (Macklin). […] The solid medium is based on the above formula with the addition of 1% agar, and the characteristic fried egg-like colonies were used for experiments following incubation for 7 d on plates.
# The broth microdilution MIC procedure was performed according to standardized methods for microdilution susceptibility testing of mycoplasma species ([Waites et al., 2012]). […] The concentration of organisms should be determined to approximately 10^6 CFU/mL prior to inoculation into 96-well plates. Due to the action of phenol red, the acidic metabolites of microbial growth can turn the medium yellow. […] The MBC assays were performed based on MICs following endpoint reading and the liquid in the high-concentration wells was removed for bacterial counting.
# [2] = test system: Mycoplasma pneumoniae strain M129 (ATCC 29342); test: Time-kill curves; assay type: cell-based; parameters: M. pneumoniae count in time-kill curve: unit not given here
# Experimental: as §1
# The tubes were incubated at 37°C in 5% CO2 for 72 h, and 200 µL of the culture was removed every 12 h for 10-fold serial dilutions. The diluted cultures were plated on plates for further culture and counted after 7 d. The experiment was repeated three times.
# Mycoplasma pneumoniae = test: In vivo pharmacodynamic study: Mycoplasma pneumoniae loads in BALF of infected mice; parameters: species or system BALB/c mice; conditions: tiamulin 40 mg/kg PO (fumarate soluble powder); for MPcounts in BALF (AV): group AV; for MPcounts in BALF: individual mice
# Experimental: (§2) Adult BALB/c mice (20–22 g) were divided into a control group, a positive group, and compound 16C groups at low (20 mg/kg), medium (40 mg/kg), and high-dose (80 mg/kg) levels and oral and intramuscular tiamulin treatment groups (40 mg/kg). We formulated the above dose range based on the dose at which tiamulin was approved for injection (10–20 mg/kg) and the dose previously reported (45 mg/kg) ([EMA, 1999]; [Xiao et al., 2016]). In summary, we selected similar doses for compound 16C in vivo study. 40 mg/kg was used as an intermediate value, one-half of it as a low dose, and two times of it as a high dose. To prepare the challenge solution, logarithmic phase culture suspensions were centrifuged at 1700 g for 10 min, and the pellets were suspended in sterile PBS to obtain 1 × 10^9 CFU/mL. Before the challenge, mice were anesthetized with tribromoethanol (250 mg/kg, IP). Mice in the control groups were intratracheally inoculated with sterile PBS, whereas mice in the other groups were intratracheally challenged with 50 μL (1 × 10^9 CFU/mL) M. pneumoniae suspension once a day for 3 days. Compound 16C and tiamulin (tiamulin-IM group) dissolved using the method mentioned in pharmacokinetic studies, and the tiamulin fumarate soluble powder was dissolved in ddH2O for oral administration. After the final challenge, antibiotics were administered at low, medium, and high-dose levels (see above) at 10 a.m. and 10 p.m. daily for 4 consecutive days. Normal saline containing 5% DMSO and 5% Tween-80 was administered as control and positive groups by thigh intramuscular injection. To compare the efficacy of compound 16C and tiamulin under the same route of administration, we used the original tiamulin for intramuscular administration in the same formulation. On the other hand, tiamulin fumarate soluble powder, approved for oral administration to treat animal mycoplasma diseases in China, was administered to mice by gavage. Based on a clinical study of lefamulin in community-acquired bacterial pneumonia (CABP), subjects were administered twice a day and the 96 ± 24 h of starting treatment was an essential point for early clinical response (ECR) ([Paukner et al., 2022]). We therefore stopped treatment at 96 h and sampled at 192 h to explore whether the disease worsened after cessation of treatment. Bronchoalveolar lavage fluid (BALF) and lungs were collected at 0, 96, 192 h (Samples of 0 h were collected before starting treatment, and mice were fed ad libitum without drug treatment during 96–192 h) after the first dose, BALF for cytokine and cytological analysis and lung for histopathological evaluation.
# (§3) Bronchoalveolar lavage was performed according to a standardized method ([Van Hoecke et al., 2017]). BALF was obtained following infusion of 0.5 mL PBS via tracheal cannulation into the lung twice (total 1 mL), and 200 µL was used for mycoplasma counts. The remaining BALF was centrifuged at 300 g for 10 min to separate the debris. The supernatants were stored at −80°C, and the debris was resuspended in the same volume of PBS containing red blood cell lysis buffer. A hemocytometer was used to count total cell numbers in BALF, and cell smears (Diff-Quik staining) were prepared to calculate the percentages of neutrophils, macrophages, and lymphocytes. IFN-γ, TNF-α, and CXCL1 levels in BALF samples were assessed using commercial ELISA kits using guidelines recommended by the manufacturer (Elabscience, Wuhan, China). Parallel data for each experimental group at each time point were obtained from six different mice.
# IFN-γ = IFN-γ in BALF of M. pneumoniae-infected mice (ELISA); assay type: in vivo, BALB/c mice; conditions: tiamulin 40 mg/kg PO (fumarate soluble powder); for IFN-γ in BALF (AV): group AV; for IFN-γ in BALF: individual mice
# Experimental: as §2, §3
# TNF-α = TNF-α in BALF of M. pneumoniae-infected mice (ELISA); assay type: in vivo, BALB/c mice; conditions: tiamulin 40 mg/kg PO (fumarate soluble powder), individual mice
# Experimental: as §2, §3
# CXCL1 = CXCL1 in BALF of M. pneumoniae-infected mice (ELISA); assay type: in vivo, BALB/c mice; conditions: tiamulin 40 mg/kg PO (fumarate soluble powder), individual mice
# Experimental: as §2, §3
# [3] = test system: Mycoplasma pneumoniae-infected mice (lung tissue); test: Histopathological assessment of lung tissue (HPS, response and recovery rates) in M. pneumoniae-infected mice; assay type: in vivo, BALB/c mice; parameters: HPS value (mean) / HPS: scale not given here; conditions: tiamulin 40 mg/kg PO (fumarate soluble powder); for HPS: individual mice
# Experimental: as §2
# Lung tissues were collected at 0, 96, and 192 h following drug administration. Lungs were collected from 6 mice in each group at 96 h and 13–15 mice in each group at 192 h. In addition, the lungs of 8 untreated infected mice were taken at 0 h as initial controls. Lung tissues were fixed in 4% paraformaldehyde, and whole-mount sections of paraffin-embedded lungs were stained with hematoxylin and eosin (H&E). The histopathologic score (HPS) was determined according to published protocols by a single pathologist who was unaware of the treatment status and groups of the animals ([Cimolai et al., 1992]). The HPS was based on individual grading of peribronchiolar/bronchial infiltrate, bronchiolar/bronchial luminal exudate, perivascular infiltrate, and parenchymal pneumoniae.
compound,measurement,setting,value
CN(C)[C@@H]1C(O)=C(C(N)=O)C(=O)[C@@]2(O)C(O)=C3C(=O)c4c(O)cccc4[C@@](C)(O)[C@H]3C[C@@H]12 [tetracycline],MBC,[1],3.2 µg/mL
same,M. pneumoniae count in time-kill curve,"[2]; 1×MIC, time 0",6.522
same,M. pneumoniae count in time-kill curve,"[2]; 1×MIC, time 12",6.243
same,M. pneumoniae count in time-kill curve,"[2]; 1×MIC, time 24",5.358
same,M. pneumoniae count in time-kill curve,"[2]; 1×MIC, time 36",5.0751
same,M. pneumoniae count in time-kill curve,"[2]; 1×MIC, time 48",3.623
same,M. pneumoniae count in time-kill curve,"[2]; 1×MIC, time 60",4.011
same,M. pneumoniae count in time-kill curve,"[2]; 1×MIC, time 72",4.04
same,reduction of bacterial counts,"[2]; 1–2×MIC, 72 h",2.38–2.48 log10 CFU/mL
same,M. pneumoniae count in time-kill curve,"[2]; 2×MIC, time 0",6.522
same,M. pneumoniae count in time-kill curve,"[2]; 2×MIC, time 12",5.562
same,M. pneumoniae count in time-kill curve,"[2]; 2×MIC, time 24",5.13
same,M. pneumoniae count in time-kill curve,"[2]; 2×MIC, time 36",4.505
same,M. pneumoniae count in time-kill curve,"[2]; 2×MIC, time 48",3.395
same,M. pneumoniae count in time-kill curve,"[2]; 2×MIC, time 60",3.925
same,M. pneumoniae count in time-kill curve,"[2]; 2×MIC, time 72",4.141
same,M. pneumoniae count in time-kill curve,"[2]; 4×MIC, time 0",6.522
same,M. pneumoniae count in time-kill curve,"[2]; 4×MIC, time 12",5.527
same,M. pneumoniae count in time-kill curve,"[2]; 4×MIC, time 24",4.565
same,M. pneumoniae count in time-kill curve,"[2]; 4×MIC, time 36",4.182
same,M. pneumoniae count in time-kill curve,"[2]; 4×MIC, time 48",3.523
same,M. pneumoniae count in time-kill curve,"[2]; 4×MIC, time 60",3.499
same,M. pneumoniae count in time-kill curve,"[2]; 4×MIC, time 72",3.057
same,M. pneumoniae count in time-kill curve,"[2]; 8×MIC, time 0",6.522
same,M. pneumoniae count in time-kill curve,"[2]; 8×MIC, time 12",5.0382
same,M. pneumoniae count in time-kill curve,"[2]; 8×MIC, time 24",4.431
same,M. pneumoniae count in time-kill curve,"[2]; 8×MIC, time 36",4.11
same,M. pneumoniae count in time-kill curve,"[2]; 8×MIC, time 48",3.568
same,M. pneumoniae count in time-kill curve,"[2]; 8×MIC, time 60",3.5
same,M. pneumoniae count in time-kill curve,"[2]; 8×MIC, time 72",3.462
same,M. pneumoniae count in time-kill curve,"[2]; 16×MIC, time 0",6.522
same,M. pneumoniae count in time-kill curve,"[2]; 16×MIC, time 12",5.216
same,M. pneumoniae count in time-kill curve,"[2]; 16×MIC, time 24",4.191
same,M. pneumoniae count in time-kill curve,"[2]; 16×MIC, time 36",3.827
same,M. pneumoniae count in time-kill curve,"[2]; 16×MIC, time 48",3.742
same,M. pneumoniae count in time-kill curve,"[2]; 16×MIC, time 60",3.715
same,M. pneumoniae count in time-kill curve,"[2]; 16×MIC, time 72",3.031
same,M. pneumoniae count in time-kill curve,"[2]; 32×MIC, time 0",6.522
same,M. pneumoniae count in time-kill curve,"[2]; 32×MIC, time 12",4.677
same,M. pneumoniae count in time-kill curve,"[2]; 32×MIC, time 24",4.038
same,M. pneumoniae count in time-kill curve,"[2]; 32×MIC, time 36",3.597
same,M. pneumoniae count in time-kill curve,"[2]; 32×MIC, time 48",3.571
same,M. pneumoniae count in time-kill curve,"[2]; 32×MIC, time 60",3.497
same,M. pneumoniae count in time-kill curve,"[2]; 32×MIC, time 72",3.078
same,M. pneumoniae count in time-kill curve,"[2]; 64×MIC, time 0",6.522
same,M. pneumoniae count in time-kill curve,"[2]; 64×MIC, time 12",4.323
same,M. pneumoniae count in time-kill curve,"[2]; 64×MIC, time 24",4.306
same,M. pneumoniae count in time-kill curve,"[2]; 64×MIC, time 36",3.779
same,M. pneumoniae count in time-kill curve,"[2]; 64×MIC, time 48",3.079
same,M. pneumoniae count in time-kill curve,"[2]; 64×MIC, time 60",3.41
same,M. pneumoniae count in time-kill curve,"[2]; 64×MIC, time 72",3.079
same,concentration at which bactericidal effect was achieved,"[2]; static time-kill, 72 h",≥ 4 × MIC
"C=C[C@]1(C)C[C@@H](OC(=O)CSCCN(CC)CC)[C@]2(C)[C@H](C)CC[C@]3(CCC(=O)[C@H]32)[C@@H](C)[C@@H]1O [Tiamulin-PO, Tiamulin fumarate, reference compound]",MPcounts in BALF (AV),Mycoplasma pneumoniae; 96 h,4.578 Log10CFU/mL
same,MPcounts in BALF,Mycoplasma pneumoniae; 96 h,4.372 Log10CFU/mL and 4.349 Log10CFU/mL and 5.68 Log10CFU/mL and 4.443 Log10CFU/mL and 4.274 Log10CFU/mL and 4.354 Log10CFU/mL
same,MPcounts in BALF (AV),Mycoplasma pneumoniae; 192 h,4.3846 Log10CFU/mL
same,MPcounts in BALF,Mycoplasma pneumoniae; 192 h,4.0302 Log10CFU/mL and 4.805 Log10CFU/mL and 4.331 Log10CFU/mL and 4.53 Log10CFU/mL and 4.4765 Log10CFU/mL and 4.136 Log10CFU/mL
same,IFN-γ in BALF (AV),IFN-γ; 96 h,32.2599 pg/mL
same,IFN-γ in BALF,IFN-γ; 96 h,34.8842 pg/mL and 17.3704 pg/mL and 63.2217 pg/mL and 29.659 pg/mL and 25.3118 pg/mL and 23.1122 pg/mL
same,IFN-γ in BALF (AV),IFN-γ; 192 h,34.0801 pg/mL
same,IFN-γ in BALF,IFN-γ; 192 h,37.2747 pg/mL and 51.8224 pg/mL and 27.2214 pg/mL and 28.4425 pg/mL and 30.8711 pg/mL and 28.8485 pg/mL
same,TNF-α in BALF,TNF-α; 96 h,13.0598 pg/mL and 17.5743 pg/mL and 24.463 pg/mL and 20.81 pg/mL and 21.310 pg/mL and 10.7269 pg/mL
same,TNF-α in BALF,TNF-α; 192 h,8.7059 pg/mL and 12.3017 pg/mL and 9.398 pg/mL and 5.239 pg/mL and 5.021 pg/mL and 15.24 pg/mL
same,CXCL1 in BALF,CXCL1; 96 h,47.9583 pg/mL and 40.7995 pg/mL and 44.8333 pg/mL and 37.1973 pg/mL and 31.7608 pg/mL and 43.0428 pg/mL
same,CXCL1 in BALF,CXCL1; 192 h,52.4056 pg/mL and 49.740 pg/mL and 60.3659 pg/mL and 36.7459 pg/mL and 45.7272 pg/mL
same,HPS,[3]; 96 h,2.5 and 4 and 1 and 3
same,HPS,[3]; 192 h,1.5 and 2 and 1 and 8 and 0 and 3 and 4
same,Recovery,[3]; from HPS at 192 h,6.67%
same,Response,[3]; from HPS at 192 h,86.67%
